Reference: the supplement of paper PMC10307832

Columns and labels:
Assay in all cases: relative viability (nuclei count vs DMSO), 5 days (fraction); higher = more cells survive
[1] = compound: C1CCC(CC1)N(CCNCCC2=C3C(=C(C=C2)O)NC(=O)CO3)C(=O)CCNCCC4=CC(=C(C=C4)Cl)Cl [AZ505] + COc1cc2c(Oc3ccc(NC(=O)C4(C(=O)Nc5ccc(F)cc5)CC4)cc3F)ccnc2cc1OCCCN1CCOCC1 [Foretinib] (partner 0.25 µM)
Method in brief: (§1)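 Values are medians from duplicate plates. Each reflects relative viability, defined as the nuclei count of treated wells over that of vehicle wells. Lung cancer cell lines in 1536-well plates were pin-tool dosed one day after seeding with one drug alone or with a fixed anchor-drug dose plus five library-drug doses (not always all listed) in √10 steps, then fixed, stained and imaged at 4× after 5 days.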

[2] = compound: C1CCC(CC1)N(CCNCCC2=C3C(=C(C=C2)O)NC(=O)CO3)C(=O)CCNCCC4=CC(=C(C=C4)Cl)Cl [AZ505] + Nc1ncn([C@H]2C[C@H](O)[C@@H](CO)O2)c(=O)n1 [Decitabine] (partner 2 µM)
Method in brief: as §1

[3] = compound: Cn1c(=O)n(-c2ccc(C(C)(C)C#N)cc2)c2c3cc(-c4cnc5ccccc5c4)ccc3ncc21 [Dactolisib] + CC1(C)CCC(c2ccc(Cl)cc2)=C(CN2CCN(c3ccc(C(=O)NS(=O)(=O)c4ccc(N[C@H](CCN5CCOCC5)CSc5ccccc5)c(S(=O)(=O)C(F)(F)F)c4)cc3)CC2)C1 [Navitoclax] (partner 0.5 µM)
Method in brief: as §1

[4] = compound: Cn1c(=O)n(-c2ccc(C(C)(C)C#N)cc2)c2c3cc(-c4cnc5ccccc5c4)ccc3ncc21 [Dactolisib] + Nc1ncn([C@H]2C[C@H](O)[C@@H](CO)O2)c(=O)n1 [Decitabine] (partner 2 µM)
Method in brief: as §1

| Cell Line | relative viability ([1]; first compound 0.08 µM) | relative viability ([1]; first compound 0.253 µM) | relative viability ([1]; first compound 0.8 µM) | relative viability ([1]; first compound 2.53 µM) | relative viability ([1]; first compound 8 µM) | relative viability ([2]; first compound 0.08 µM) | relative viability ([2]; first compound 0.8 µM) | relative viability ([2]; first compound 2.53 µM) | relative viability ([2]; first compound 8 µM) | relative viability ([3]; first compound 0.002 µM) | relative viability ([3]; first compound 0.006325 µM) | relative viability ([3]; first compound 0.02 µM) | relative viability ([3]; first compound 0.06325 µM) | relative viability ([3]; first compound 0.2 µM) | relative viability ([4]; first compound 0.002 µM) | relative viability ([4]; first compound 0.006325 µM) | relative viability ([4]; first compound 0.02 µM) | relative viability ([4]; first compound 0.06325 µM) | relative viability ([4]; first compound 0.2 µM) | relative viability ([2]; first compound 0.253 µM) |
| --- | --- | --- | --- | --- | --- | --- | --- | --- | --- | --- | --- | --- | --- | --- | --- | --- | --- | --- | --- | --- |
| NCI-H596 | 0.746 | 0.897 | 0.805 | 0.897 | 0.731 | 0.976 | 0.974 | 1.15 | 0.979 | 0.894 | 0.852 | 0.701 | 0.416 | 0.171 | 1 | 0.965 | 0.814 | 0.718 | 0.523 |  |
| A-427 | 1.05 | 1.04 | 0.997 | 1.1 | 1.13 | 0.58 | 0.488 | 0.525 | 0.574 | 0.953 | 0.951 | 0.915 | 0.393 | 0.349 | 0.605 | 0.571 | 0.609 | 0.457 | 0.436 | 0.551 |
| EMC-BAC-2 | 0.95 | 0.99 | 0.993 | 0.985 | 0.961 | 0.938 | 0.862 | 0.924 | 0.943 | 1.19 | 1.13 | 1.11 | 0.867 | 0.642 | 1.01 | 0.861 | 0.888 | 0.54 | 0.551 |  |
| NCI-H441 | 0.909 | 0.97 | 1.09 | 0.876 | 1.06 | 0.287 | 0.232 | 0.25 | 0.264 | 0.851 | 0.416 | 0.577 | 0.237 | 0.303 | 0.285 | 0.256 | 0.31 | 0.233 | 0.203 | 0.245 |
| LCLC-103H | 0.734 | 0.857 | 0.729 | 0.848 | 0.715 | 0.73 | 0.707 | 0.751 | 0.702 |  |  |  |  |  | 0.678 | 0.677 | 0.592 | 0.458 | 0.433 | 0.674 |
| HCC-827 | 0.891 | 1.08 | 1.02 | 1.08 | 1.09 | 0.325 | 0.324 | 0.37 | 0.351 | 1.03 | 1.02 | 1.06 | 0.905 | 0.687 | 0.387 | 0.343 | 0.337 | 0.27 | 0.294 | 0.313 |
| NCI-H1355 | 0.819 | 1.01 | 0.992 | 1 | 1.01 | 0.345 | 0.37 | 0.379 | 0.351 | 0.959 | 0.836 | 0.86 | 0.335 | 0.234 | 0.382 | 0.35 | 0.338 | 0.267 | 0.253 | 0.366 |
| NCI-H1734 | 0.785 | 0.811 | 0.754 | 0.751 | 0.829 | 0.52 | 0.45 | 0.541 | 0.506 | 0.839 | 0.647 | 0.743 | 0.275 | 0.234 | 0.542 | 0.491 | 0.478 | 0.341 | 0.259 | 0.501 |
| HARA | 0.85 | 0.963 | 0.766 | 0.709 | 0.633 | 0.302 | 0.41 | 0.482 | 0.408 | 1.2 | 1.13 | 1.18 | 1.13 | 0.404 | 0.708 | 0.558 | 0.634 | 0.623 | 0.356 |  |
| HCC-15 | 0.911 | 1.04 | 1.03 | 1.02 | 1.02 | 0.566 | 0.587 | 0.705 | 0.678 | 0.767 | 0.646 | 0.673 | 0.475 | 0.322 | 0.626 | 0.599 | 0.617 | 0.33 | 0.208 | 0.627 |
| LCLC-97TM1 | 0.874 | 0.87 | 0.888 | 0.86 | 1.02 | 0.195 | 0.244 |  | 0.228 | 0.503 | 0.33 | 0.3 | 0.202 | 0.192 | 0.261 | 0.24 | 0.23 | 0.172 | 0.155 | 0.253 |
| RERF-LC-KJ | 0.906 | 0.829 | 0.8 | 0.46 | 0.863 | 0.719 | 0.757 | 0.78 | 0.567 | 0.875 | 1.03 | 0.697 | 0.455 | 0.609 | 0.752 | 0.726 | 0.644 | 0.316 | 0.443 | 0.664 |
| NCI-H1651 | 0.771 | 0.843 | 0.804 | 0.603 | 0.84 | 0.55 | 0.672 | 0.727 | 0.598 | 1.13 | 0.865 | 0.755 | 0.317 | 0.276 | 0.644 | 0.689 | 0.503 | 0.327 | 0.314 | 0.576 |
| NCI-H2170 | 1.05 | 1.07 | 0.994 | 1.03 | 0.934 | 0.469 | 0.422 | 0.482 | 0.453 | 0.58 | 0.512 | 0.473 | 0.217 | 0.198 | 0.489 | 0.466 | 0.476 | 0.371 | 0.354 | 0.466 |
